Measurements taken from PubChem BioAssay (NCI).
Values joined by “and” are separate entries in the source; they are usually repeats but may differ in a detail not shown here. Equal entries are not always repeated.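 Method: 48-hour compound exposure of cells in 96-well plates, five concentrations, linear interpolation of endpoints. The concentration for 50% growth inhibition is given as GI50. Definition used: TGI = concentration required for complete inhibition of growth.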

What was measured:
Test in all cases: inhibition of tumour cell growth, NCI panel, 48 h
A549 NSCLC = system: A549 NSCLC
BT-549 breast = system: BT-549 breast
EKVX NSCLC = system: EKVX NSCLC
HL-60(TB) leukemia = system: HL-60(TB) leukemia
MDA-MB-435 = system: MDA-MB-435
NCI-H460 lung = system: NCI-H460 lung
NCI/ADR-RES ovarian = system: NCI/ADR-RES ovarian
SF-295 CNS = system: SF-295 CNS
SW-620 colon = system: SW-620 colon
UACC-257 melanoma = system: UACC-257 melanoma

Structure (SMILES)	TGI (A549 NSCLC) [µM]	TGI (BT-549 breast) [µM]	TGI (EKVX NSCLC) [µM]	TGI (HL-60(TB) leukemia)	TGI (MDA-MB-435) [µM]	TGI (NCI-H460 lung) [µM]	TGI (NCI/ADR-RES ovarian) [µM]	TGI (SF-295 CNS)	TGI (SW-620 colon) [µM]	TGI (UACC-257 melanoma) [µM]	GI50 (HL-60(TB) leukemia) [µM]	GI50 (NCI-H460 lung) [µM]	GI50 (NCI/ADR-RES ovarian) [µM]	GI50 (SF-295 CNS)	GI50 (UACC-257 melanoma) [µM]
COc1ccc(N2CCN(c3ccc4c(c3)NCC(=O)N4)CC2)cc1	> 100	> 100	> 100	47.5 µM	> 100	> 100	68.5	> 100 µM	> 100	> 100					
Cc1ccccc1NC(=S)N/N=C(/c1ccccc1)c1ccccn1	11.8	18.5	3.43	1.24 µM	14.2	9.05	15.2	8.7 µM	15.4	0.357					
C=C1c2nc3ccccc3n2C=C(c2ccc(Cl)cc2)N1c1ccccc1	27.1	18.8	45.2	> 100 µM	> 100	24.9	29.8	24 µM	> 100	63					
Cc1ccc(S(=O)(=Nc2ccccc2)C(C(C)C)C(C)(C)Cl)cc1 (stereo not drawn)	> 50	> 50	47.3	22 µM	38.6	45.4	> 50	> 50 µM	> 50	> 50					
NCCCCNCCCN	> 100	> 100	> 100	> 100 µM	> 100	> 100	> 100	> 100 µM	> 100	> 100					
CCOC(=O)/C=C(/C(=O)OCC)n1c(=O)c(C)cn(C2CC(N=[N+]=[N-])C(CO)O2)c1=O (stereo not drawn)	> 100	> 100	94	5.18 µM	> 100	> 100	> 100	> 100 µM	34.1	86.1					
COC(=O)C[C@H](COCc1ccccc1)NC(=O)C[C@H](COCc1ccccc1)NC(=O)C[C@H](COCc1ccccc1)NC(=O)OC(C)(C)C	> 100	> 100	> 100	> 100 µM	> 100		> 100	> 100 µM	> 100						
CCCCCCC(CCl)c1sc(-c2csc(CCNC(=O)OC(C)(C)C)n2)nc1C(=O)OC (stereo not drawn)	> 100	58.3	> 100	> 100 µM	30.4	46.8	14.8	> 100 µM	> 100	67.6					
Sc1nnc(-c2ccccc2Nc2ccccc2-c2nnc(S)n2-c2ccccc2)n1-c1ccccc1		> 100	97.9	67.1 µM	53	> 100	> 100	> 100 µM	81.9	> 100					
CN(C)CCCNC(=O)c1cc(NC(=O)c2cc(NC(=O)c3cc(NC(=O)CCCn4ccc(CO)c4CO)cn3C)cn2C)cn1C	75.4	7.51	> 100	> 100 µM	47.7	> 100	> 100		> 100						
CCN(CC)C(=S)SNCCc1ccc(S(N)(=O)=O)cc1	26.5	30	40	> 67.2 µM	29.6	> 100	41.6	47.5 µM	36.7	32.9					
C1OCN2c3nonc3N3COCN4c5nonc5N1C2C43 (stereo not drawn)	> 100	> 100	> 100	> 100 µM	> 100	> 100	> 100	> 100 µM	> 100	> 100					
Cc1cc(=O)c2c(O)c3c(O)cc(O)c4c5c(O)cc(O)c6c(O)c7c(=O)cc(C)c8c1c2c(c34)c(c65)c78	> 100	> 100	> 100	> 100 µM and 30.7 µM	> 100	> 100	> 100	> 100 µM and 37.6 µM	> 100	> 100	11.7	33.2	> 100	> 100 µM and 16.6 µM	> 100
O=C(NCCO)c1c(O)c2ccccc2[nH]c1=O	> 100	> 100	> 100	> 100 µM	> 100	> 100	> 100	> 100 µM	> 100	> 100					
COC(=O)C1=C(OC(=O)/C(=C/c2ccc(Cl)cc2)c2ccccc2)C(C(=O)OC)[C@@]2(O)[C@@H](C(=O)OC)[C@H](C)C[C@@H]1[C@@H]2C(=O)OC (stereo partly drawn)	> 100	> 100	> 100	> 100 µM	> 100	> 100	> 100	> 100 µM	> 100	> 100					
Cc1ccc([N+](=O)[O-])cc1S(=O)(=O)Nc1ccc(C2=NN(c3ccc([N+](=O)[O-])cc3[N+](=O)[O-])C(c3ccccc3O)C2)cc1 (stereo not drawn)	> 100	> 100	90.6	> 100 µM	> 100		> 100	> 100 µM	> 100	82.7					
CC(=O)Oc1ccc(OC(Oc2ccccc2)c2ccccc2)cc1 (stereo not drawn)	> 100	68	> 100	41.8 µM	94.3	49.3	90.3	> 100 µM	> 100	64.5					
N=C1N=C(N)c2cc3c(cc21)SCCSCCCSCCS3	49.8	31.4	> 58.5	20.6 µM	15.9	29.9	> 100	31.1 µM	30.7	44					
C=C1C(=O)[C@]23[C@H](O)[C@H]1CC[C@H]2[C@@]12CO[C@@]3(O)C[C@@H]1C(C)(C)CC[C@@H]2O	> 25	8.33	> 25	> 25 µM	7.61		> 25	> 25 µM	13.8	21.1					
